Measured values reported in patent US11072619B2, “Pyrazole[1,5-a] pyrimidine derivatives as kinase JAK inhibitors” (CELON PHARMA S.A., priority 2017, dated 2021).

How the values were obtained:
[1] = molecular target: Recombinant kinase JAK2 (Homo sapiens (Human), UniProt O60674); assay: In vitro JAK kinase inhibition assay (ADP-Glo), JAK2; assay type: biochemical; settings: 30 μM ATP, peptide IGF-1Rtide, averaged
Protocol: (§1) In Vitro JAK Kinase Inhibition Assay
(§2) The effects of the compounds of the invention were analysed in vitro using kinase JAK inhibition assay described below.
Tested compounds were dissolved in 100% DMSO, and obtained stock solutions were serially diluted in the reaction buffer (50 mM Tris pH 7.5, 10 mM MgCl2, 0.25 mM EGTA, 0.1 mM Na3VO4, 0.01% Triton X-100, 2.5 mM DTT). Recombinant kinases JAK1 (ProQinase), JAK2, or JAK3 (Carna Biosciences) were diluted in the dilution buffer (50 mM Tris-HCl pH 7.5, 150 mM NaCl, 10% glycerol, 0.05% Triton X-100, 1 mM DTT) to the final concentration 3 ng/μL (JAK1), 0.1 ng/μL (JAK2), or 0.2 ng/μL (JAK3). 5 μL of obtained solution of the compounds and 5 μL of the solution of respective kinases were added to the well of a 96-well plate. To initiate interaction between tested compounds and an enzyme, the plate was incubated for 10 minutes at 25° C. in a Plate-Thermo-Shaker with orbital stirring at 400 rpm. Wells of a negative control contained all reagents as mentioned above with the exception of tested compounds and kinase, and wells of a positive controls contained all reagents as mentioned above with the exception of tested compounds. […] Then the plate was incubated for 1 hour at 25° C. in a Plate-Thermo-Shaker, with orbital stirring at 400 rpm. Detection of ADP formed in the enzymatic reaction was then performed using ADP-Glo Kinase Assay kit (Promega). For this purpose, to the well of the 96-well plate 25 μL of ADP-Glo Reagent were added, and the plate was incubated for 40 minutes at 25° C. in a Plate-Thermo-Shaker with orbital stirring at 400 rpm. Then to the well of the 96-well plate 50 μL of Kinase Detection Reagent were added and the plate was incubated for 30 minutes at 25° C. in a Plate-Thermo-Shaker with orbital stirring at 400 rpm. After incubation, luminescence intensity was measured using Victor×Light luminometer (Perkin Elmer, Inc.).
(§3) On the basis of luminescence measurement in wells containing tested compounds at various concentrations and in control wells, IC50 values were determined. These values were determined with Graph Pad software v. 5.03, by fitting points of the curve using non-linear regression method. Each compound was tested in at least 6 repetitions (6 wells) on two 96-well plates, using at least 3 wells of each control.

[2] = molecular target: Recombinant kinase JAK1 (Homo sapiens (Human), UniProt P23458); assay: In vitro JAK kinase inhibition assay (ADP-Glo), JAK1; assay type: biochemical; settings: 30 μM ATP, peptide IRS-1, averaged
Protocol: as §1, §2
(§4) Tested compounds were dissolved in 100% DMSO, and obtained stock solutions were serially diluted in the reaction buffer (50 mM Tris pH 7.5, 10 mM MgCl2, 0.25 mM EGTA, 0.1 mM Na3VO4, 0.01% Triton X-100, 2.5 mM DTT). Recombinant kinases JAK1 (ProQinase), JAK2, or JAK3 (Carna Biosciences) were diluted in the dilution buffer (50 mM Tris-HCl pH 7.5, 150 mM NaCl, 10% glycerol, 0.05% Triton X-100, 1 mM DTT) to the final concentration 3 ng/μL (JAK1), 0.1 ng/μL (JAK2), or 0.2 ng/μL (JAK3). 5 μL of obtained solution of the compounds and 5 μL of the solution of respective kinases were added to the well of a 96-well plate. To initiate interaction between tested compounds and an enzyme, the plate was incubated for 10 minutes at 25° C. in a Plate-Thermo-Shaker with orbital stirring at 400 rpm. Wells of a negative control contained all reagents as mentioned above with the exception of tested compounds and kinase, and wells of a positive controls contained all reagents as mentioned above with the exception of tested compounds. Enzymatic reaction was initiated by the addition of 15 μL of the following solution: 5× concentrated reaction buffer (50 mM Tris pH 7.5, 10 mM MgCl2, 0.25 mM EGTA, 0.1 mM Na3VO4, 0.01% Triton X-100, 2.5 mM DTT), water, 30 μM ATP and for particular kinases: JAK1—60 μM peptide IRS-1 (Enzo), JAK2 or JAK3—10 μM peptide IGF-1Rtide (Lipopharm). Then the plate was incubated for 1 hour at 25° C. in a Plate-Thermo-Shaker, with orbital stirring at 400 rpm. Detection of ADP formed in the enzymatic reaction was then performed using ADP-Glo Kinase Assay kit (Promega). For this purpose, to the well of the 96-well plate 25 μL of ADP-Glo Reagent were added, and the plate was incubated for 40 minutes at 25° C. in a Plate-Thermo-Shaker with orbital stirring at 400 rpm. Then to the well of the 96-well plate 50 μL of Kinase Detection Reagent were added and the plate was incubated for 30 minutes at 25° C. in a Plate-Thermo-Shaker with orbital stirring at 400 rpm. After incubation, luminescence intensity was measured using Victor×Light luminometer (Perkin Elmer, Inc.).
as §3
(§5) Averaged results of kinases JAK inhibition activity for selected compounds of the present invention are presented below in Table 1.

[3] = molecular target: Recombinant kinase JAK3 (Homo sapiens (Human), UniProt P52333); assay: In vitro JAK kinase inhibition assay (ADP-Glo), JAK3; assay type: biochemical; settings: 30 μM ATP, peptide IGF-1Rtide, averaged
Protocol: as §1, §2, §4, §3, §5

[4] = system: TF-1 cells; assay: TF-1 cells viability in vitro in the presence of IL-4 (JAK1/JAK3 activation); assay type: cell-based; settings: for IC50: Homo sapiens, TF-1, 20 ng/mL IL-4, 72 hours, ATPlite, read-out: JAK1,3 IL4 (EC50, inhibition of viability of TF-1 cells); for JAK2/JAK1,3 Ratio: ratio of TF-1 viability EC50 with IL3 to EC50 with IL4
Protocol: (§6) Assay for TF-1 Cells Viability In Vitro
(§7) The effects of the activity of the compounds of the invention were tested in vitro using cells viability assay described below.
(§8) Tested compounds were dissolved in 100% DMSO, and obtained stock solutions were serially diluted in OptiMEM medium (Reduced Serum Medium-Thermo Fisher Scientific). TF-1 cells (DSMZ no.: ACC 334) in culture medium (80% RPMI 1640+20% FBS) ad in the presence of 5 ng/mL IL-3 or 20 ng/mL IL-4 were deposited on 96-well plates in the volume of 90 μl per well, 10 thousands of cells per well. To a well of the 96-well plate 10 μL of the prepared 10× stock solutions of the compounds. Cells on 96-well plates were incubated with the compounds for 72 hours at 37° C., 5% CO2. Subsequently, viability of the cells was measured using ATPlite kit (Perkin Elmer). For this purpose, 50 μL of lysis buffer (mammalian cell lysis solution) were added to a well of the 96-well plate and the plate was incubated for 10 minutes at 25° C. in a plate thermo-shaker with orbital stirring at 600 rpm. Then to a well of the 96-well plate 50 μL of substrate (substrate solution) were added and incubated for 15 minutes at in dark, in a plate thermo-shaker with orbital stirring at 600 rpm. After incubation time, luminescence intensity in a well was measured using Victor×Light luminometer (Perkin Elmer, Inc.).
as §3, with “luminescence intensity measurements” for “luminescence measurement”, “in well” for “in wells”, “control wells EC50” for “control wells, IC50”

[5] = system: TF-1 cells; assay: TF-1 cells viability in vitro in the presence of IL-3 (JAK2 activation); assay type: cell-based; settings: Homo sapiens, 5 ng/mL IL-3, 72 hours, ATPlite, read-out: JAK2 IL3 (EC50, inhibition of viability of TF-1 cells)
Protocol: as §6, §7
as §8, with “TF-1 cells (DSMZ no.: ACC 334) in culture medium (80% RPMI 1640+20% FBS) ad in the presence of 5 ng/mL IL-3 or 20 ng/mL IL-4 were deposited on 96-well plates in the volume of 90 μl per well, 10 thousands of cells per well.” left out
On the basis of luminescence intensity measurements in well containing tested compounds at various concentrations and in control wells EC50 values were determined. These values were determined with Graph Pad software v. […] Each compound was tested in at least 6 repetitions (6 wells) on two 96-well plates, using at least 3 wells of each control.

Sequence of Recombinant kinase JAK3 (P52333 whole entry): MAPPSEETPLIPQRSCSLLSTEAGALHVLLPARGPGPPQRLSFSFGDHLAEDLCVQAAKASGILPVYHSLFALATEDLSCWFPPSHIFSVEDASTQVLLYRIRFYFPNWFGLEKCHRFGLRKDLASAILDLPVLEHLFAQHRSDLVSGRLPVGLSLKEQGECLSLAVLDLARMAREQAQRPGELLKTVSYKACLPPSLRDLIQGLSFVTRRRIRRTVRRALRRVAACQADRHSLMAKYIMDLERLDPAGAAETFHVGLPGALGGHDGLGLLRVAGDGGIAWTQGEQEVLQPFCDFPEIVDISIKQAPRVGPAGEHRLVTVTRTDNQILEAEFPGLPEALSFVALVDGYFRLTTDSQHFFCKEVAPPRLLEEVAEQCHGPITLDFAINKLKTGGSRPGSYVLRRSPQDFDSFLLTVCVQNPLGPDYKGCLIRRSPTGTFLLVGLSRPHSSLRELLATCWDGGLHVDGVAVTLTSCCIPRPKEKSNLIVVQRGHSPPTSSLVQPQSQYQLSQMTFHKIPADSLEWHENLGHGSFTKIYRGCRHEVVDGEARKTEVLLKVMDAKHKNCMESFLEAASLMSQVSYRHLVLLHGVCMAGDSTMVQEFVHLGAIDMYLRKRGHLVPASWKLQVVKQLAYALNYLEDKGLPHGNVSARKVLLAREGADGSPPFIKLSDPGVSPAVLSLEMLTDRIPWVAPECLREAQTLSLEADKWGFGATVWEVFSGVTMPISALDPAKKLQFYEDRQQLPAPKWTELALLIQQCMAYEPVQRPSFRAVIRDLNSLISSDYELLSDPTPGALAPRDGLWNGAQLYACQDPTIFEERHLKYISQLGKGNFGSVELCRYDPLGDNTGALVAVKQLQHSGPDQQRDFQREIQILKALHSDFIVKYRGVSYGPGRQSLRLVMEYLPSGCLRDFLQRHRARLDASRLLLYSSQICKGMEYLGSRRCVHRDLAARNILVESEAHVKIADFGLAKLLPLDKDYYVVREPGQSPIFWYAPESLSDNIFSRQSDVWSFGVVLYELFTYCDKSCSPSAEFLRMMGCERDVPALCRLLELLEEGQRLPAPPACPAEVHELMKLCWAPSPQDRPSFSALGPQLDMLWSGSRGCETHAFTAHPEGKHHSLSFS
Sequence of Recombinant kinase JAK1 (P23458 whole entry): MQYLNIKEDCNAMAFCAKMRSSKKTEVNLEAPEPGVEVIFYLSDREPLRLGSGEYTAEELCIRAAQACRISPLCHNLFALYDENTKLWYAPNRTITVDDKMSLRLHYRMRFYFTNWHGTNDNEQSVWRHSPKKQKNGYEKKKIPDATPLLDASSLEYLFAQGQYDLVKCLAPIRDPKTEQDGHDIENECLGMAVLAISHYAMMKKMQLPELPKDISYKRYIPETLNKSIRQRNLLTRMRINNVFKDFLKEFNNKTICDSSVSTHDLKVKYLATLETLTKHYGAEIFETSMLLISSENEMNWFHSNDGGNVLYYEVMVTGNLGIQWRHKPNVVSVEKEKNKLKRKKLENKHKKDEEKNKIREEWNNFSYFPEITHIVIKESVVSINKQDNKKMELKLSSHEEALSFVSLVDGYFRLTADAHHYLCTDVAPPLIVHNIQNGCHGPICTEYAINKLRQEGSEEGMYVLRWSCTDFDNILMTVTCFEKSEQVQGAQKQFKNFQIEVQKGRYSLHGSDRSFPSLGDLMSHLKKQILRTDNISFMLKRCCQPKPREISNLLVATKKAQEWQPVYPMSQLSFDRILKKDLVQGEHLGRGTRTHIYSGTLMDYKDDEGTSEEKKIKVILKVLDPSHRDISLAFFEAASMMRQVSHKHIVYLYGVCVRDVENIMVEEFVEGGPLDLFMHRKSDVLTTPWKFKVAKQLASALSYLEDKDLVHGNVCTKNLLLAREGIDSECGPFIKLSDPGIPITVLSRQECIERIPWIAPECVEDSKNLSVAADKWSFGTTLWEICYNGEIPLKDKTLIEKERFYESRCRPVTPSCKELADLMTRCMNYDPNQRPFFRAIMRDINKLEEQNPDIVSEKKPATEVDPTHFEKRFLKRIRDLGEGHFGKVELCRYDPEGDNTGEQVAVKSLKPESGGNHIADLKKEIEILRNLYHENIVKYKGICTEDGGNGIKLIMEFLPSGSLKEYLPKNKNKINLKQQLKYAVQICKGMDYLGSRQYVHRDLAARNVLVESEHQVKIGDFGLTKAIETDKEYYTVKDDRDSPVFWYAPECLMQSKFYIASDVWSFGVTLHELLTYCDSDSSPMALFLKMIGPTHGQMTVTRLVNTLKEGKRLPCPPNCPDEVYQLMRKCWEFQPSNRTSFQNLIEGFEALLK
Sequence of Recombinant kinase JAK2 (O60674 whole entry): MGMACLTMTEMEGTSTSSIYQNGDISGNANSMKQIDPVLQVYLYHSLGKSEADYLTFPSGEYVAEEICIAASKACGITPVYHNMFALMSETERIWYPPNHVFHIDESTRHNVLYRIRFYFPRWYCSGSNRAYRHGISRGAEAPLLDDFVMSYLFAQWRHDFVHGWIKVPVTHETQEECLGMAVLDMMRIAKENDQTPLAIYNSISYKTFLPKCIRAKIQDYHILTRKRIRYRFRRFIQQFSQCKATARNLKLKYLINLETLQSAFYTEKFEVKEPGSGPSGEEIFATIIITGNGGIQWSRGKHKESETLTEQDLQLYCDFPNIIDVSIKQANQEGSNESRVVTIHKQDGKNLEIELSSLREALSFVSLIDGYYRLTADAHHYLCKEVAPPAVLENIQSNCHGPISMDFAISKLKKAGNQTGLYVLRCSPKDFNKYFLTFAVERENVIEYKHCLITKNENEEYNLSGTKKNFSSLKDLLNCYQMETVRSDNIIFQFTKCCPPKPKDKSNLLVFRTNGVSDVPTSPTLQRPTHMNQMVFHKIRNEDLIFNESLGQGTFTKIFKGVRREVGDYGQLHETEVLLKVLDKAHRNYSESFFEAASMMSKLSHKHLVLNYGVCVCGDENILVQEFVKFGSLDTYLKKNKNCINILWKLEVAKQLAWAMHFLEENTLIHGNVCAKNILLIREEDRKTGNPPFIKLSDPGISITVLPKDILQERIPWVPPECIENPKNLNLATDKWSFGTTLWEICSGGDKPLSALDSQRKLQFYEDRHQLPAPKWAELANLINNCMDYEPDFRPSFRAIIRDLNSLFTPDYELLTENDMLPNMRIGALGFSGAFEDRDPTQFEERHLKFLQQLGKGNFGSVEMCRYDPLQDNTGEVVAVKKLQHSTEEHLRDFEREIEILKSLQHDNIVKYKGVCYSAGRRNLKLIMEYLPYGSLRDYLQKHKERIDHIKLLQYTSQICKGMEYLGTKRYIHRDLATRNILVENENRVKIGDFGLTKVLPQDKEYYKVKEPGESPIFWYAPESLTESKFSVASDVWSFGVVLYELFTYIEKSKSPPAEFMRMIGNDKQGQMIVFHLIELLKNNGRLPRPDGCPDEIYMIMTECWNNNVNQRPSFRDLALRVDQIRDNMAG

Work on CCOc1ncc(-c2cc3ncc(C(N)=O)c(N[C@@H]4CCN(c5ccc(C#N)nn5)CC4(C)C)n3n2)cn1 [Example 9, (R)-7-((1-(6-Cyanopyridazin-3-yl)-3,3-dimethylpiperidin-4-yl)amino)-2-(2-ethoxy-pyrimidin-5-yl)pyrazolo[1,5-a]pyrimidine-6-carboxamide] yielded an IC50 [1] of 89.6 nM, an IC50 [2] of 47.5 nM and an IC50 [3] of 18.8 nM.

Molecule CCOc1ccc(-c2cc3ncc(C(N)=O)c(N[C@@H]4CCN(c5ccc(C#N)nn5)CC4(C)C)n3n2)cn1 [Example 5, (R)-7-((1-(6-Cyanopyridazin-3-yl)-3,3-dimethylpiperidin-4-yl)amino)-2-(6-ethoxy-pyridin-3-yl)pyrazolo[1,5-a]pyridimine-6-carboxamide] has an IC50 [1] of 34.4 nM, an IC50 [2] of 8.08 nM and an IC50 [3] of 1.8 nM.

For COc1ccc(F)c(-c2cc3ncc(C(N)=O)c(N[C@@H]4CCN(c5ccc(C#N)nn5)CC4(C)C)n3n2)c1 [Example 2, (R)-7-((1-(6-Cyanopyridazin-3-yl)-3,3-dimethylpiperidin-4-yl)amino)-2-(2-fluoro-5-methoxyphenyl)pyrazolo[1,5-a]pyrimidine-6-carboxamide], the IC50 [4] was 242 nM, the “JAK2/JAK1,3 Ratio” value [4] was 5 and the IC50 [5] was 1200 nM. For the same molecule, the IC50 [1] was 59.3 nM, the IC50 [2] was 3.74 nM and the IC50 [3] was 3.77 nM.

Molecule CC1(C)CN(c2ccc(C#N)nn2)CC[C@H]1Nc1c(C(N)=O)cnc2cc(-c3cccnc3)nn12 [Example 3, (R)-7-((1-(6-Cyanopyridazin-3-yl)-3,3-dimethylpiperidin-4-yl)amino)-2-(pyridin-3-yl)pyrazolo[1,5-a]pyrimidine-6-carboxamide] has an IC50 [1] of 31.1 nM, an IC50 [2] of 4.47 nM and an IC50 [3] of 1.58 nM.

CC1(C)CN(c2ccc(C#N)nn2)CC[C@H]1Nc1c(C(N)=O)cnc2cc(-c3ccc(N)nc3)nn12 [Example 6, (R)-2-(6-Aminopyridin-3-yl)-7-((1-(6-cyanopyridazin-3-yl)-3,3-dimethylpiperidin-4-yl)amino)pyrazolo[1,5-a]pyrimidine-6-carboxamide] was tested, and the IC50 [4] was 361 nM, the “JAK2/JAK1,3 Ratio” value [4] was 9.2 and the IC50 [5] was 3330 nM. The IC50 [1] was 2.98 nM, the IC50 [2] was 0.38 nM and the IC50 [3] was 0.16 nM.

With COc1ccc(-c2cc3ncc(C(N)=O)c(N[C@@H]4CCN(c5ccc(C#N)nn5)CC4(C)C)n3n2)cc1 [Example 1, (R)-7-((1-(6-Cyanopyridazin-3-yl)-3,3-dimethylpiperidin-4-yl)amino)-2-(4-methoxy-phenyl)pyrazolo[1,5-a]pyrimidine-6-carboxamide] the IC50 [4] was 350 nM, the “JAK2/JAK1,3 Ratio” value [4] was 2.4 and the IC50 [5] was 837 nM. For the same molecule, the IC50 [1] was 19 nM, the IC50 [2] was 1.8 nM and the IC50 [3] was 1.2 nM.

COc1ncc(-c2cc3ncc(C(N)=O)c(N[C@@H]4CCN(c5ccc(C#N)nn5)CC4(C)C)n3n2)cn1 [Example 8, (R)-7-((1-(6-Cyanopyridazin-3-yl)-3,3-dimethylpiperidin-4-yl)amino)-2-(2-methoxy-pyrimidin-5-yl)pyrazolo[1,5-a]pyrimidine-6-carboxamide] was tested, and the IC50 [4] was 203 nM, the “JAK2/JAK1,3 Ratio” value [4] was 10 and the IC50 [5] was 2020 nM. It also gave an IC50 [1] of 26.8 nM, an IC50 [2] of 8.54 nM and an IC50 [3] of 2.24 nM.

For CC1(C)CN(c2ccc(C#N)nn2)CC[C@H]1Nc1c(C(N)=O)cnc2cc(-c3ccc(F)nc3)nn12 [Example 10, (R)-7-((1-(6-Cyanopyridazin-3-yl)-3,3-dimethylpiperidin-4-yl)amino)-2-(6-fluoro-pyridin-3-yl)pyrazolo[1,5-a]pyrimidine-6-carboxamide], the IC50 [4] was 112 nM, the “JAK2/JAK1,3 Ratio” value [4] was 11.5 and the IC50 [5] was 1280 nM. For the same molecule, the IC50 [1] was 12.8 nM, the IC50 [2] was 2.37 nM and the IC50 [3] was 0.6 nM.
